Measurements: ChEMBL document CHEMBL2029230, “Identification, design and biological evaluation of heterocyclic quinolones targeting Plasmodium falciparum type II NADH:quinone oxidoreductase (PfNDH2)” (J Med Chem, 2012)

Assays:
Plasmodium falciparum [1] = test: Antimalarial activity against blood stage forms of Plasmodium falciparum 3D7 infected in human erythrocytes; type: functional, organism-based
[2] = Inhibition of Plasmodium falciparum recombinant NDH2 expressed in Escherichia coli F571 using decyclubiquinone as substrate at 1 min by spectrophotometry
Plasmodium falciparum [3] = test: Antimalarial activity against […]-resistant Plasmodium falciparum TM90C2B containing cytochrome-b Y268S mutant; type: functional, organism-based
[4] = AUC (0 to t) in rat at 20 mg/kg, po; type: ADME, organism-based; parameters: dose 20 mg/kg, route oral; conditions: plasma
[5] = Tmax in rat at 20 mg/kg, po; type: ADME, organism-based; parameters: dose 20 mg/kg, route oral; conditions: in vivo
HepG2 = test: Cytotoxicity against human HepG2 cells; type: cell-based
[6] = Inhibition of Plasmodium falciparum cytochrome b-c1 complex using decylubiquinol as substrate by spectrophotometry
Plasmodium falciparum [7] = test: Antimalarial activity against chloroquine-resistant Plasmodium falciparum W2; type: functional, organism-based
Rattus norvegicus = test: Volume of distribution in rat at 20 mg/kg, po; type: ADME, organism-based; parameters: dose 20 mg/kg, route oral; conditions: in vivo
[8] = Cmax in rat at 20 mg/kg, po; type: ADME, organism-based; parameters: dose 20 mg/kg, route oral; conditions: in vivo
Liver microsomes = test: Half life in human liver microsomes at 1 uM; type: ADME, Microsome
[9] = Metabolic stability in human liver microsomes assessed as compound remaining at 1 uM after 60 mins; type: ADME, Microsome; conditions: read-out: Stability
Plasmodium berghei [10] = test: Antimalarial activity against Plasmodium berghei NS infected in po dosed CD1 mouse assessed as decrease in parasitemia measured on day 4; type: functional; conditions: 96 h
[11] = Half life in rat at 20 mg/kg, po; type: ADME, organism-based; parameters: dose 20 mg/kg, route oral; conditions: in vivo
Plasmodium berghei [12] = test: Antimalarial activity against Plasmodium berghei NS infected in CD1 mouse assessed as decrease in parasitemia at 20 mg/kg, po administered using SSV as vehicle measured on day 4; type: functional; parameters: scale not given: the % may be the effect or the level left
[13] = Total clearance in rat at 20 mg/kg, po; type: ADME, organism-based; parameters: dose 20 mg/kg, route oral; conditions: in vivo
Plasmodium berghei [14] = test: Antimalarial activity against Plasmodium berghei NS infected in CD1 mouse assessed as decrease in parasitemia at 20 mg/kg, po administered using DET as vehicle measured on day 4; type: functional; parameters: scale not given: the % may be the effect or the level left

SMILES: Cc1c(-c2ccc(-c3ccc(OCCN4CCOCC4)cc3)nc2)[nH]c2ccccc2c1=O
- IC50 (Plasmodium falciparum [1]): > 1 µM

SMILES: Cc1c(-c2c(F)cc(-c3ccc(OC(F)(F)F)cc3)cc2F)[nH]c2ccccc2c1=O
- IC50 (Plasmodium falciparum [1]): 0.94 µM

SMILES: Cc1c(-c2ccc(-c3ccccc3C(F)(F)F)cc2)[nH]c2ccccc2c1=O
- IC50 [2]: 0.0081 µM
- IC50 (Plasmodium falciparum [1]): 0.096 µM

SMILES: Cc1c(-c2ccc(-c3ccc(F)cc3F)cc2)[nH]c2ccccc2c1=O
- IC50 (Plasmodium falciparum [1]): 0.213 µM

SMILES: Cc1c(-c2ccc(-c3ccccc3F)cc2)[nH]c2ccccc2c1=O
- IC50 (Plasmodium falciparum [1]): 0.471 µM

SMILES: CCOC(=O)c1c(-c2ccc(-c3ccc(OC(F)(F)F)cc3)cc2)[nH]c2ccccc2c1=O
- IC50 (Plasmodium falciparum [1]): 0.347 µM

SMILES: CCOC(=O)c1c(-c2ccc(-c3ccc(Cl)cc3)cc2)[nH]c2ccccc2c1=O
- IC50 (Plasmodium falciparum [3]): 1.15 µM
- IC50 (Plasmodium falciparum [1]): 0.22 µM

SMILES: O=c1c(CO)c(-c2ccc(-c3ccc(OC(F)(F)F)cc3)cc2)[nH]c2ccccc12
- IC50 (Plasmodium falciparum [3]): 0.361 µM
- IC50 [2]: 0.069 µM
- IC50 (Plasmodium falciparum [1]): 0.162 µM

SMILES: Cc1c(-c2ccc(-c3ccc(OC(F)(F)F)cc3)nc2)[nH]c2ccccc2c1=O
- AUC(0-t) [4]: 69300 ng·h/mL
- IC50 (Plasmodium falciparum [3]): 0.344 µM
- Tmax [5]: 7 h
- CC50 (HepG2): > 50 µM
- IC50 [6]: 0.015 µM
- IC50 (Plasmodium falciparum [7]): 0.05 µM
- Vd (Rattus norvegicus): 3.9708 L/kg
- Cmax [8]: 3700 ng/mL
- t1/2 (Liver microsomes): 1.61 h
- IC50 [2]: 0.015 µM
- remaining at 1 h, 1 µM [9]: 60%
- ED50 (Plasmodium berghei [10]): 12.8 mg/kg
- ED90 (Plasmodium berghei [10]): 27.3 mg/kg
- half-life [11]: 9.9 h
- Activity (Plasmodium berghei [12]): 87.5%
- CL/F [13]: 4.61 mL/min/kg
- IC50 (Plasmodium falciparum [1]): 0.054 µM
- Activity (Plasmodium berghei [14]): 100%

SMILES: COc1cccc2[nH]c(-c3ccc(-c4ccc(OC(F)(F)F)cc4)nc3)c(C)c(=O)c12
- IC50 (Plasmodium falciparum [1]): > 1 µM

SMILES: Cc1c(-c2ccc(-c3ccc(OC(F)(F)F)cc3)nc2)[nH]c2ccc(Cl)cc2c1=O
- IC50 (Plasmodium falciparum [3]): 0.41 µM
- IC50 (Plasmodium falciparum [1]): 0.298 µM

SMILES: COc1ccc2[nH]c(-c3ccc(-c4ccc(OC(F)(F)F)cc4)nc3)c(C)c(=O)c2c1
- IC50 (Plasmodium falciparum [1]): > 1 µM

SMILES: Cc1c(-c2ccc(-c3ccc(OC(F)(F)F)cc3)nc2)[nH]c2ccc(OC(F)(F)F)cc2c1=O
- IC50 (Plasmodium falciparum [1]): > 1 µM

SMILES: Cc1c(-c2ccc(-c3ccc(OC(F)(F)F)cc3)nc2)[nH]c2ccc(C(F)(F)F)cc2c1=O
- IC50 (Plasmodium falciparum [1]): > 1 µM

SMILES: Cc1c(-c2ccc(-c3ccc(OC(F)(F)F)cc3)nc2)[nH]c2cc(F)ccc2c1=O
- IC50 [6]: 0.0268 µM
- IC50 (Plasmodium falciparum [7]): 0.07 µM
- IC50 [2]: 0.0042 µM
- IC50 (Plasmodium falciparum [1]): 0.075 µM

SMILES: Cc1c(-c2ccc(-c3ccc(OC(F)(F)F)cc3)nc2)[nH]c2cc(Cl)ccc2c1=O
- IC50 (Plasmodium falciparum [1]): 0.373 µM

SMILES: Cc1c(-c2ccc(-c3ccc(OC(F)(F)F)cc3)nc2)[nH]c2cc(C(F)(F)F)ccc2c1=O
- IC50 (Plasmodium falciparum [1]): > 1 µM

SMILES: Cc1c(-c2ccc(-c3ccc(OC(F)(F)F)cc3)nc2)[nH]c2cc(S(C)(=O)=O)ccc2c1=O
- IC50 (Plasmodium falciparum [1]): > 1 µM

SMILES: COc1cccc2c(=O)c(C)c(-c3ccc(-c4ccc(OC(F)(F)F)cc4)nc3)[nH]c12
- IC50 (Plasmodium falciparum [1]): > 1 µM

SMILES: Cc1c(-c2ccc(-c3ccc(OC(F)(F)F)cc3)nc2)[nH]c2cc(F)cc(F)c2c1=O
- IC50 [2]: 0.0026 µM
- IC50 (Plasmodium falciparum [1]): 0.286 µM

SMILES: Cc1c(-c2ccc(-c3ccc(OC(F)(F)F)cc3)nc2)[nH]c2cc(F)c(F)cc2c1=O
- IC50 (Plasmodium falciparum [1]): 0.344 µM

SMILES: Cc1c(-c2ccc(-c3ccc(OC(F)(F)F)cc3)nc2)[nH]c2cc(F)c(Cl)cc2c1=O
- IC50 (Plasmodium falciparum [1]): 0.39 µM

SMILES: Cc1c(-c2ccc(-c3ccc(OC(F)(F)F)cc3)nc2)[nH]c2cc(Cl)c(F)cc2c1=O
- IC50 (Plasmodium falciparum [1]): 0.39 µM

SMILES: Cc1c(-c2ccc(-c3ccc(C(F)(F)F)cc3)nc2)[nH]c2ccccc2c1=O
- IC50 (Plasmodium falciparum [3]): 0.314 µM
- IC50 [2]: 0.0139 µM
- IC50 (Plasmodium falciparum [1]): 0.102 µM

SMILES: Cc1c(-c2ccc(-c3ccc(F)cc3F)nc2)[nH]c2ccccc2c1=O
- IC50 [2]: 0.0886 µM
- IC50 (Plasmodium falciparum [1]): 0.219 µM

SMILES: COc1cccc(-c2ccc(-c3[nH]c4ccccc4c(=O)c3C)cn2)c1
- IC50 (Plasmodium falciparum [1]): 0.556 µM

SMILES: Cc1c(-c2ccc(-c3ccc(OC(F)(F)F)cc3)nc2)[nH]c2ccc(O)cc2c1=O
- IC50 (Plasmodium falciparum [1]): 0.28 µM

SMILES: Cc1c(-c2ccc(-c3ccc(OC(F)(F)F)cc3)nc2)[nH]c2cc(O)ccc2c1=O
- IC50 (Plasmodium falciparum [1]): 0.202 µM

SMILES: Cc1c(-c2ccc(-c3ccc(OC(F)(F)F)cc3)nc2)[nH]c2c(O)cccc2c1=O
- IC50 (Plasmodium falciparum [1]): > 1 µM

SMILES: Cc1c(-c2ccc(-c3cccc(O)c3)nc2)[nH]c2ccccc2c1=O
- IC50 (Plasmodium falciparum [1]): > 1 µM

SMILES: Cc1c(-c2ccc(-c3ccc(O)cc3)nc2)[nH]c2ccccc2c1=O
- IC50 (Plasmodium falciparum [1]): > 1 µM

SMILES: Cc1c(-c2ccc(-c3ccccc3C(F)(F)F)nc2)[nH]c2ccccc2c1=O
- IC50 (Plasmodium falciparum [3]): 0.381 µM
- IC50 (Plasmodium falciparum [7]): 0.088 µM
- IC50 [2]: 0.352 µM
- IC50 (Plasmodium falciparum [1]): 0.109 µM

SMILES: Cc1c(-c2ccc(-c3ccccc3F)nc2)[nH]c2ccccc2c1=O
- IC50 (Plasmodium falciparum [3]): 0.324 µM
- IC50 (Plasmodium falciparum [7]): 0.12 µM
- IC50 [2]: 0.131 µM
- IC50 (Plasmodium falciparum [1]): 0.151 µM
